# From paper PMC5882690, “Mechanical characteristics of beta sheet-forming peptide hydrogels are dependent on peptide sequence, concentration and buffer composition” (Royal Society Open Science, 2018)
# Where a SMILES comes first, the peptide text is derived from it.
# Assays:
# [1] = Oscillatory amplitude sweep (storage modulus G′ in linear viscoelastic region, yield point); assay type: physicochemical; conditions: for yield point YP / peptide hydrogel stiffness G′ / yield point YP (strain where G′ < 95% of original value): mean ± SD, n = 3; for peptide hydrogel stiffness G′: 140 mM ionic strength, assembled overnight; for peptide hydrogel stiffness G′ / yield point YP (strain where G′ < 95% of original value): 37°C
# Description: […] The amplitude sweep tests were performed to measure storage moduli (G′) within the linear viscoelastic region. Calculations of the gel breaking points (yield points) were performed with MATLAB depending on the different peptide concentrations. Therefore, the yield strain was defined as the point where G′ is less than 95% of its original value. Oscillatory time sweep experiments were performed to study the gelation speed and hydrogel stiffness. Time sweeps up to 150 min measuring time using a frequency of 1 rad s^−1 and amplitude gamma of 0.05% were used. SAP hydrogel stiffness was determined after the equilibrium of the storage modulus (G′) was reached (t = 100 min). To determine the gelation speed, the slope of increasing storage modulus over time was calculated in the interval from t = 5 to 10 min after placing peptide solutions onto the rheometer.
# To study SAP hydrogel stiffness within the linear viscoelastic region and gel breaking points according to the peptide concentrations, unary SAP hydrogels (300 µl) were prepared in vials at concentrations of 15 mg ml^−1, 20 mg ml^−1 and 30 mg ml^−1 by dissolving first the lyophilized peptides in 150 µl of buffer A and then adding 150 µl of peptide-specific Tris–NaCl buffer B according to table 1. Complementary SAP hydrogels (P11-13/14 and P11-28/29) were obtained by dissolving 150 µl of P11-13 in 0.1 M Tris buffer + 0.052 M NaCl pH 8 and 150 µl P11-14 in 0.055 M Tris buffer + 0.096 M NaCl pH 7.2 (table 1). The P11-13 and P11-14 solutions were then mixed (1 : 1) to obtain 300 µl of complementary SAP hydrogel with a final ionic strength of 140 mM and a pH of 7.2. All SAP hydrogels were allowed to assemble overnight.
# (§1) To study the influence of divalent ions and different media on SAP hydrogel stiffness, gelation speed and gel breaking points (yield points), SAPs were prepared at a concentration of 15 mg ml^−1 in the different media, Tris–NaCl, Tris–MgSO4, DMEM or artificial saliva, according to table 1. All experiments were done at least in duplicate. Statistical evaluation was performed with GRAPHPAD PRISM version 6.0 based on a one-way ANOVA test followed by Tukey's multiple comparison test.
# [2] = Oscillatory time sweep (hydrogel stiffness at t = 100 min, gelation speed); assay type: physicochemical; conditions: for Stiffness (storage modulus G′ at t = 100 min) / Speed (gelation speed, dG′/dt 5–10 min): time sweep, mean ± SD
# Description: Dynamic oscillatory amplitude sweeps up to 150% strain were performed at 37°C using an Anton Paar MCR301 rheometer equipped with a 10 mm diameter stainless steel parallel plate geometry at a 0.9 mm measuring gap. The amplitude sweep tests were performed to measure storage moduli (G′) within the linear viscoelastic region. Calculations of the gel breaking points (yield points) were performed with MATLAB depending on the different peptide concentrations. Therefore, the yield strain was defined as the point where G′ is less than 95% of its original value. Oscillatory time sweep experiments were performed to study the gelation speed and hydrogel stiffness. Time sweeps up to 150 min measuring time using a frequency of 1 rad s^−1 and amplitude gamma of 0.05% were used. SAP hydrogel stiffness was determined after the equilibrium of the storage modulus (G′) was reached (t = 100 min). To determine the gelation speed, the slope of increasing storage modulus over time was calculated in the interval from t = 5 to 10 min after placing peptide solutions onto the rheometer.
# as §1
# [3] = 15 mg ml^-1, Tris–NaCl, amplitude sweep
# [4] = 20 mg ml^-1, Tris–NaCl, amplitude sweep
# [5] = 30 mg ml^-1, Tris–NaCl, amplitude sweep
# [6] = 15 mg ml^-1, artificial saliva, n = 3
# [7] = 15 mg ml^-1, serum-free DMEM, n = 3
# [8] = artificial saliva versus DMEM, 15 mg ml^-1
compound,measurement,setting,value
"CC(=O)N[C@@H](CCC(N)=O)C(=O)N[C@@H](CCC(N)=O)C(=O)N[C@@H](CCCNC(=N)N)C(=O)N[C@@H](Cc1ccccc1)C(=O)N[C@@H](CCC(=O)O)C(=O)N[C@@H](Cc1c[nH]c2ccccc12)C(=O)N[C@@H](CCC(=O)O)C(=O)N[C@@H](Cc1ccccc1)C(=O)N[C@@H](CCC(=O)O)C(=O)N[C@@H](CCC(N)=O)C(=O)N[C@@H](CCC(N)=O)C(N)=O [P11-4, CH3CO-QQRFEWEFEQQ-NH2] (Ac-QQRFEWEFEQQ-NH2)",yield point YP,"[1]; 15 mg ml^-1, Tris–MgSO4, amplitude sweep",0.05±0.03%
same,peptide hydrogel stiffness G′,[1]; [3],2.1± 1.0 kPa
same,yield point YP (strain where G′ < 95% of original value),[1]; [3],2.3±0.3%
same,yield point YP,[1]; [3],0.45± 0.05%
same,yield point YP,"[1]; 15 mg ml^-1, artificial saliva, amplitude sweep up to 100% strain",0.3 ± 0.02%
same,yield point YP,"[1]; 15 mg ml^-1, serum-free DMEM, amplitude sweep up to 100% strain",2.3 ± 0.44%
same,peptide hydrogel stiffness G′,[1]; [4],2.4± 0.3 kPa
same,yield point YP (strain where G′ < 95% of original value),[1]; [4],1.3±0.3%
same,peptide hydrogel stiffness G′,[1]; [5],4.6± 1.3 kPa
same,yield point YP (strain where G′ < 95% of original value),[1]; [5],1.2±0.7%
same,factor of increase of SAP hydrogel stiffness,"[1]; doubling SAP concentration from 15 to 30 mg ml^-1, Tris–NaCl",2
same,Stiffness (storage modulus G′ at t = 100 min),"[2]; 15 mg ml^-1, Tris–MgSO4, 1 rad s^-1, 37°C, n = 3",9.5±2.7 kPa
same,"Speed (gelation speed, dG′/dt 5–10 min)","[2]; 15 mg ml^-1, Tris–MgSO4",0.8±0.1 G`/min
same,Stiffness (storage modulus G′ at t = 100 min),"[2]; 15 mg ml^-1, Tris–NaCl, 1 rad s^-1, 37°C, n = 3",5.0± 2.1 kPa
same,"Speed (gelation speed, dG′/dt 5–10 min)","[2]; 15 mg ml^-1, Tris–NaCl",1.6± 0.6 G`/min
same,"Speed (gelation speed, dG′/dt 5–10 min)",[2]; [6],2.3 ± 0.9 G`/min
same,Stiffness (storage modulus G′ at t = 100 min),[2]; [6],4.9 ± 1.6 kPa
same,"Speed (gelation speed, dG′/dt 5–10 min)",[2]; [7],1.3 ± 0.4 G`/min
same,Stiffness (storage modulus G′ at t = 100 min),[2]; [7],0.4± 0.01 kPa
same,factor of increase of gelation (speed) in artificial saliva,[2]; [8],1.8
same,factor of increase of hydrogel stiffness if prepared with artificial saliva,[2]; [8],12
